Test systems include A549 NSCLC; HL-60(TB) leukemia; KM12 colon; MOLT-4 leukemia; OVCAR-8 ovarian; SR leukemia; TK-10 renal; U251 CNS; UACC-257 melanoma; UACC-62 melanoma.
Common to all, as to assay: NCI anticancer screen, dose series, 48 h

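Tested at 5 concentrations; 48 h exposure; 96-well plates; endpoints linearly interpolated, else capped at highest concentration. Here, GI50 denotes the concentration required for 50% inhibition of growth. TGI denotes the concentration required for complete inhibition of growth.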

The source of these data is PubChem BioAssay (NCI).

For the compound `O=S(=O)(Nc1ccc(Br)cc1)c1ccc(-c2cnc(C3CC3)o2)cc1`, the GI50 in the experiment on A549 NSCLC was 3.85 µM; in the experiment on HL-60(TB) leukemia it was 1.47 µM; in the experiment with KM12 colon it was 1.13 µM; in the experiment on MOLT-4 leukemia, 2.16 µM; in the experiment with OVCAR-8 ovarian it was 4.16 µM; with SR leukemia, 0.349 µM. The GI50 in the experiment on TK-10 renal was 5.36 µM; with U251 CNS it was 3.31 µM; with UACC-257 melanoma, 10.5 µM; in the experiment on UACC-62 melanoma, 1.39 µM. In addition, the TGI with A549 NSCLC was 22.5 µM; in the experiment with HL-60(TB) leukemia, 6.41 µM; with KM12 colon it was 17.5 µM; in the experiment with MOLT-4 leukemia, 24.2 µM; in the experiment with OVCAR-8 ovarian, 20.4 µM; in the experiment with SR leukemia, 16.5 µM. In addition, the TGI amounted to 21.5 µM with TK-10 renal, 18.2 µM with U251 CNS, 27.5 µM in the experiment with UACC-257 melanoma and 13.7 µM in the experiment on UACC-62 melanoma.
On to `O=c1ncccn1[C@@H]1O[C@H](CO)[C@H](O)C1O` (some centres undefined), for which the TGI in the experiment on A549 NSCLC, in the experiment with HL-60(TB) leukemia, in the experiment with KM12 colon, in the experiment on MOLT-4 leukemia, in the experiment on OVCAR-8 ovarian and with SR leukemia was over 100 µM each time. For the same compound, the TGI with TK-10 renal, in the experiment on U251 CNS, in the experiment with UACC-257 melanoma and with UACC-62 melanoma was over 100 µM in each case.
In the case of `O=C(Nc1cccc(Cl)c1)Nn1cnnc1`, the GI50 in the experiment with A549 NSCLC, in the experiment on HL-60(TB) leukemia, in the experiment with KM12 colon, in the experiment with MOLT-4 leukemia, with OVCAR-8 ovarian and with TK-10 renal was over 50 µM throughout. Further, the GI50 with U251 CNS, in the experiment with UACC-257 melanoma and with UACC-62 melanoma was over 50 µM in each case. In addition, the TGI in the experiment on A549 NSCLC, in the experiment on HL-60(TB) leukemia, with KM12 colon, in the experiment on MOLT-4 leukemia, with OVCAR-8 ovarian and in the experiment with SR leukemia was over 100 µM in each case. The TGI with TK-10 renal, in the experiment with U251 CNS, in the experiment on UACC-257 melanoma and in the experiment on UACC-62 melanoma was over 100 µM each time.
As to `c1cc[c]([Sn][c]2ccccc2)cc1`, the GI50 was 21.5 µM in the experiment with A549 NSCLC; 20.5 µM in the experiment with HL-60(TB) leukemia; 13.6 µM in the experiment on KM12 colon; 19.2 µM in the experiment on MOLT-4 leukemia; 24 µM with OVCAR-8 ovarian; 18.6 µM in the experiment with SR leukemia. The GI50 with TK-10 renal is 20.1 µM; in the experiment on U251 CNS it was 19.4 µM; with UACC-257 melanoma, 29.6 µM; in the experiment on UACC-62 melanoma, 21 µM. In addition, the TGI in the experiment on A549 NSCLC is 51.5 µM; in the experiment with HL-60(TB) leukemia it was 41.9 µM; with KM12 colon, 19.2 µM; with MOLT-4 leukemia, 60.3 µM; with OVCAR-8 ovarian, 58.8 µM; in the experiment with SR leukemia, 45.3 µM. Besides, the TGI with TK-10 renal was 51.2 µM; with U251 CNS, 42 µM; in the experiment on UACC-257 melanoma it was over 72.9 µM; in the experiment on UACC-62 melanoma it was 47 µM.
`O=C(c1ccc2ccccc2c1)c1c(C(F)(F)F)n([O-])c2ccc(C(F)(F)F)cc2[n+]1=O`: the GI50 is 1.68 µM in the experiment on A549 NSCLC; 0.639 µM in the experiment on HL-60(TB) leukemia; 0.961 µM in the experiment with KM12 colon; 0.441 µM in the experiment on MOLT-4 leukemia; 0.727 µM with OVCAR-8 ovarian; 0.174 µM in the experiment on SR leukemia. Further, the GI50 in the experiment with TK-10 renal was 1.67 µM; in the experiment on U251 CNS, 0.302 µM; in the experiment with UACC-257 melanoma, 1.52 µM; in the experiment on UACC-62 melanoma it was 1.72 µM. In addition, the TGI with A549 NSCLC was 3.48 µM; in the experiment with HL-60(TB) leukemia it was 2.2 µM; with KM12 colon it was 2.39 µM; in the experiment on MOLT-4 leukemia it was 1.62 µM; in the experiment with OVCAR-8 ovarian it was 2.45 µM; in the experiment with SR leukemia it was 0.478 µM. Besides, the TGI is 3.07 µM in the experiment on TK-10 renal, 0.742 µM with U251 CNS, 3.12 µM in the experiment with UACC-257 melanoma and 3.21 µM in the experiment with UACC-62 melanoma.
`CCSC1=NC2C(N(CC)C(=O)N2CC)N1/N=C/C=C/c1ccccc1[N+](=O)[O-]` (centres undefined): the GI50 with A549 NSCLC is 0.307 µM; with HL-60(TB) leukemia, 0.205 µM; in the experiment on KM12 colon, 0.0887 µM; in the experiment with MOLT-4 leukemia, 0.419 µM; in the experiment with OVCAR-8 ovarian it was 0.385 µM; with SR leukemia it was 0.0895 µM. Moreover, the GI50 in the experiment with TK-10 renal is 36.8 µM; with U251 CNS, 0.174 µM; in the experiment on UACC-257 melanoma, 23.8 µM; with UACC-62 melanoma, 0.0604 µM. For the same compound, the TGI in the experiment on A549 NSCLC was over 100 µM; in the experiment on HL-60(TB) leukemia, 0.502 µM; in the experiment with KM12 colon, over 37.7 µM; in the experiment on MOLT-4 leukemia, over 100 µM; with OVCAR-8 ovarian it was over 100 µM; with SR leukemia, over 48 µM. Further, the TGI with TK-10 renal, with U251 CNS, in the experiment on UACC-257 melanoma and in the experiment with UACC-62 melanoma was over 100 µM throughout.
In the case of `CO/N=C(\COc1ccc2c(c1)[nH]c1ccccc12)c1ccc(OC)cc1`, the GI50 is 5.29 µM in the experiment with A549 NSCLC; 62.2 µM in the experiment with HL-60(TB) leukemia; over 100 µM in the experiment on KM12 colon; 27.9 µM in the experiment with MOLT-4 leukemia; 5.84 µM with OVCAR-8 ovarian; 71.6 µM in the experiment on SR leukemia. Further, the GI50 is 13.6 µM with TK-10 renal, 15.2 µM in the experiment with U251 CNS, 11.4 µM in the experiment with UACC-257 melanoma and 26.6 µM in the experiment on UACC-62 melanoma. Also, the TGI was 25.2 µM in the experiment with A549 NSCLC; over 100 µM in the experiment with HL-60(TB) leukemia; over 100 µM with KM12 colon; over 100 µM with MOLT-4 leukemia; 27.5 µM with OVCAR-8 ovarian; over 100 µM in the experiment on SR leukemia. For the same compound, the TGI is 66.7 µM in the experiment on TK-10 renal, over 100 µM in the experiment with U251 CNS, 47.1 µM in the experiment on UACC-257 melanoma and over 100 µM with UACC-62 melanoma.
`O=C(/C=C/c1ccccc1)Oc1cccc2cccnc12`: the TGI was 76.9 µM in the experiment with A549 NSCLC; over 28.1 µM in the experiment with HL-60(TB) leukemia; 32.1 µM with KM12 colon; over 51.1 µM with MOLT-4 leukemia; over 62.2 µM in the experiment on OVCAR-8 ovarian; over 100 µM with SR leukemia. Besides, the TGI in the experiment on TK-10 renal is over 100 µM; in the experiment with U251 CNS, 30.8 µM; with UACC-257 melanoma it was 18.2 µM; in the experiment with UACC-62 melanoma, 27.1 µM.
Regarding `C=C(c1ccccc1)C1(O)CCCCC1N` (centres undefined), the TGI in the experiment with A549 NSCLC was over 100 µM; in the experiment with HL-60(TB) leukemia, 43.5 µM; in the experiment on KM12 colon, over 100 µM; in the experiment on MOLT-4 leukemia, over 100 µM; in the experiment with OVCAR-8 ovarian, over 100 µM; in the experiment with SR leukemia it was 72.8 µM. In addition, the TGI in the experiment on TK-10 renal, in the experiment on U251 CNS, with UACC-257 melanoma and in the experiment with UACC-62 melanoma was over 100 µM in each case.
